From patent publication US20120021117A1, “METHOD FOR PRESERVING DRINKS” (LANXESS DEUTSCHLAND GMBH, priority 2008, published 2012)
Read-outs that look alike come from different tables or passages of the source.

Assays:
Lactobacillus brevis = assay: Microbiological colony count determination in inoculated apple juice/water 1:1 after 24 hours; assay type: cell-based; details: Cell inoculum approximately 100 cells/ml; DMDC concentration not given; duplicate
[1] = Microbiological keeping time of bottled orange juice drink without sorbate (Example 3); details: 0.5 l PET bottles, 500 ppm limonene-containing mixture and/or 200 ppm of DMDC, visual and organoleptic inspection
From the text: The samples were thereafter regularly inspected visually and organoleptically.

Saccharomyces cerevisiae = assay: Activity of DMDC, LF and their mixtures in inoculated apple juice drink, cell count after one week; assay type: cell-based; details: inoculum 375 cells/ml
Procedure: The activity of the individual components DMDC and limonene (in a formulation) and the activity of mixtures of DMDC and limonene (in a formulation) was tested against Saccharomyces cerevisiae.
For this, an apple juice drink was inoculated with 375 cells of Saccharomyces cerevisiae per ml and the active ingredient concentrations reported in Table 1 were added. In the table, DMDC is dimethyl dicarbonate, added as such.
LF was added first and then DMDC. Subsequently thereto the mixtures were thoroughly shaken and incubated at 26° C. for one week. The cell count present was then determined.

[2] = orange juice drink with potassium sorbate equivalent to 100 ppm of sorbic acid, 0.5 l PET bottles; 500 ppm limonene-containing mixture and/or 200 ppm of DMDC; visual and organoleptic inspection
Procedure: Thereafter the drink was packaged directly on a drinks bottling line (10 000 l/h) into 0.5 l PET bottles.
In this case the limonene-containing mixture was added during final mixing of the drink, whereas for metering DMDC, an electromagnetic metering pump connected upstream of the filler was used.
As comparative experiment, the same drink was packaged non-preserved, or packaged treated only with DMDC or only with limonene.

Q: Which “cell count determination after 24 hours” value (Lactobacillus brevis) does the source give for `COC(=O)OC(=O)OC` [DMDC, dimethyl dicarbonate] here?
A: Its value is 54/75.

Q: What about the microbiological keeping time [1] of the same compound?
A: The microbiological keeping time was “approximately 20 days”.

Q: And the “efficacy, defined as freedom from cells (concentration, component alone)” value (Saccharomyces cerevisiae)?
A: The value was “above 150 ppm”.

Q: For `C/C=C/C=C/C(=O)O` [sorbic acid], which microbiological keeping time [2] is on record?
A: The microbiological keeping time was “approximately 6 days”.
